# Data as given in patent publication US20230416245A1, “ADENOSINE ANALOGS FOR THE TREATMENT OF DISEASE” (BIOINTERVENE, INC., priority 2020, published 2023).
# Assays:
# [1] = target: T1, human adenosine A3 receptor (Homo sapiens (Human), UniProt P0DMS8); assay: Adenosine receptor binding assay ([125I]-AB-MECA competition); settings: inhibition of 0.15 nM [125I]-AB-MECA binding, membranes of cells expressing human A3 receptor; read-out: hA3 Ki: Ki
# Description: Example 30: Adenosine Receptor Binding Assay
# Materials and Reference Compounds: [^125I]-AB-MECA and [^3H]CCPA are both obtained from Amersham Biosciences (Little Chalfont, UK). IB-MECA are obtained from Tocris (Bristol, UK) and N6-cyclopentyl adenosine (CPA) is obtained from Sigma-Alrich (Poole, UK). Cell culture media, G418 and hygromycin are obtained from Invitrogen (Paisley, UK). Fetal calf serum is obtained from Perbio Science (Cheshire, UK). All other reagents are obtained from Fisher Chemicals (Loughborough, UK).
# The method followed is that of Yates L, Clark J H, Martin T J, James S, Broadley K J, Kidd E J. Radioligand binding and functional responses of ligands for human recombinant adenosine A3 receptors. Auton Autacoid Pharmacol. 2006; 26(2):191-200. Cells stably transfected with the human adenosine A3 or A1 receptor are grown in Dulbecco's modified Eagles medium with nutrient mixture F12 containing NaHCO3 and Glutamax. Media is supplemented with 10% fetal calf serum, geneticin (G418; 0.67 mg/mL), hygromycin (500 μg/mL) and adenosine deaminase (1 U/mL). Cells are maintained at 37° C. with 5% CO2 in air. Cells are harvested and homogenized in ice-cold Tris buffer [50 mM Tris, 150 mM NaCl, 1 mM ethylenediaminetetraacetic acid (EDTA), pH 7.4] supplemented with the peptidase inhibitors, 4-(2-aminoethyl)benzenesulfonylfluoride (1 mM) and bacitracin (0.1 mg/mL), using a Polytron homogenizer (3×10 s bursts). The homogenate was spun for 10 min (4° C.) at 500 g. The supernatant is retained and the pellet is re-suspended in the buffer, homogenized and spun as above. The combined supernatants are centrifuged for 15 min (4° C.) at 48,000 g. The resultant pellet is re-suspended in the buffer and centrifuged for a second time at 48,000 g. The membrane pellet is then suspended in Tris buffer containing no peptidase inhibitors or adenosine deaminase and stored at −80° C. at a protein concentration of 1 mg/mL.
# Binding Assays: Radioligand-binding assays were performed using the adenosine A3 receptor agonist [^125I]-AB-MECA and the A1 receptor agonist [^3H]CCPA. Binding assays were conducted in a total volume of 100 μL containing a 50 mM Tris, pH 7.4 buffer with or without 10 mM MgCl2, 20 μg membranes and either 0.15 nM [^125I]-AB-MECA (for the A3 receptor) or 1 nM [^3H]CCPA (for the A1 receptor). Assays were conducted at room temperature for 60 min (A1 receptor) or 120 min (A3 receptor) and terminated by the addition of 2 ml of ice-cold wash buffer (50 mM Tris, pH 7.4 with or without 10 mM MgCl2) and rapid filtration over 0.03% polyethylenimine-treated Whatman GF/C filters using a Brandel cell harvester (Semat International Ltd., St Albans, UK). Filters were then washed three times with 2 ml of ice-cold buffer. The filter-bound radioactivity were counted using a Compugamma counter (LKB Wallac, Turku, Finland). Competition experiments were performed to investigate the ability of reference compounds and embodiments of the invention to inhibit [^125I]-AB-MECA binding. Non-specific binding were determined using the respective compound at its highest concentration.
# Data Analysis: The Kd and Bmax values for binding data were calculated based upon the molar amounts of bound and free [^125I]-AB-MECA. […] IC50 and Ki values and Hill slopes for inhibition of the radioligand binding by the compounds of the invention were calculated from the ligand competition curves using the Excel spreadsheet and the Kd value calculated for either [^125I]-AB-MECA or [^3H]CCPA. The results were expressed as a percent of control specific binding and as a percent inhibition of control specific binding obtained in the presence of the compounds of the invention. The IC50 values (concentration causing a half-maximal inhibition of control specific binding) and Hill coefficients (nH) were determined by non-linear regression analysis of the competition curves generated with mean replicate values using Hill equation curve fitting: […]
# [2] = target: T1, human adenosine A3 receptor; assay: Intracellular cAMP levels (inhibition of forskolin-stimulated cAMP production); assay type: cell-based; settings: for EC50: CHO cells expressing human adenosine A3 receptors, forskolin 10 μM; for CAMP Efficacy (%): maximal response as percentage of the response produced by 100 nM IB-MECA
# Description: Example 31: Intracellular cAMP Levels
# The method followed is that published in Yates L, Clark J H, Martin T J, James S, Broadley K J, Kidd E J. Radioligand binding and functional responses of ligands for human recombinant adenosine A3 receptors. Auton Autacoid Pharmacol. 2006 April; 26(2):191-200.
# Materials and Cell Culture: Adenosine deaminase was obtained from Roche (Lewes, UK). Forskolin was obtained from Sigma-Aldrich (Poole, UK). The sources of other materials are provided above in Example 1. CHO-K1 cells stably transfected with the human adenosine A3 receptor were grown in Dulbecco's modified Eagles medium with nutrient mixture F12 containing NaHCO3 and Glutamax. Media was supplemented with 10% fetal calf serum, geneticin (G418; 0.67 mg/mL), hygromycin (500 μg/mL) and adenosine deaminase (1 U/mL). Cells were maintained at 37° C. with 5% CO2 in air.
# cAMP Measurements: Intracellular cAMP production was measured directly using a non-acetylation cAMP enzyme immunoassay (Amersham Biosciences, Little Chalfont, UK). Cultured CHO cells expressing human adenosine A3 receptors were allowed to plate overnight in 96-well plates in culture medium containing adenosine deaminase. Twenty-four hours later, they were incubated with adenosine analogues or compounds of the invention (0.1 nM-1 μM) for 5 min at 37° C., followed by incubation with forskolin (10 μM) for 10 min. The cells were then lysed with 200 μL of lysis reagent 1 provided with the kit for 10 min to release intracellular cAMP. Aliquots of the supernatants were then transferred to a 96-well microtitre plate coated with donkey anti-rabbit IgG; 100-μL cAMP standards (12.5-3200 fmol/well) were also added to the microtitre plate; 100 μL of rabbit anti-cAMP antibody was added to all wells and incubated at 2-5° C. for 2 h. The antiserum was made up in lysis reagent 2, which sequesters the key component in lysis reagent 1 and ensures that cAMP is free for subsequent analysis. Then 50 μL of cAMP peroxidase conjugate was added to all wells and left to incubate for 60 min at 2-5° C. to allow competition for the antibody between the un-labelled and horse radish peroxidase (HRP)-labelled cAMP. Wells were then washed with buffer and 150 μL of enzyme substrate containing 3,3′,5,5′-tetramethylbenzidine/hydrogen peroxide in 20% (v/v) dimethylformamide was added to each well and left to incubate for 60 min on a Titramax 100 microtitre plate shaker (Heidolph Instruments, Schwabach, Germany) at room temperature for color development. The reaction was stopped by the addition of 100 μL of 1 M sulfuric acid and the optical density (OD) read at 450 nm on a spectrophotometric MRX microplate reader (Dynex Technologies, Chantilly, VA, USA).
# Analyses: Each sample/standard was analyzed in duplicate and the resulting OD values averaged. The percent bound (B/Bo) for each standard and sample was calculated using the following relationship: […]
# where B is the specific OD for standard/sample and Bo is the specific OD for the zero standard. A standard curve was generated by plotting % B/Bo as a function of the log fmol cAMP standard per well. The fmol per well value for cAMP in each sample was then read from the graph. The results are expressed as a percent of control agonist response: (measured response/control response)*100 in the presence of the compounds of the invention. Concentration-response curves for inhibition of cAMP production were constructed for all compounds of the invention and reference compounds. The EC50 values (concentration producing a half-maximal response) were determined by non-linear regression analysis of the concentration-response curves generated with mean replicate values using Hill equation curve fitting, according to the equation:
# where Y=response, A=left asymptote of the curve, D=right asymptote of the curve, C=compound concentration, and C50=EC50, and nH=slope factor. […]
# T1 sequence (P0DMS8 whole entry): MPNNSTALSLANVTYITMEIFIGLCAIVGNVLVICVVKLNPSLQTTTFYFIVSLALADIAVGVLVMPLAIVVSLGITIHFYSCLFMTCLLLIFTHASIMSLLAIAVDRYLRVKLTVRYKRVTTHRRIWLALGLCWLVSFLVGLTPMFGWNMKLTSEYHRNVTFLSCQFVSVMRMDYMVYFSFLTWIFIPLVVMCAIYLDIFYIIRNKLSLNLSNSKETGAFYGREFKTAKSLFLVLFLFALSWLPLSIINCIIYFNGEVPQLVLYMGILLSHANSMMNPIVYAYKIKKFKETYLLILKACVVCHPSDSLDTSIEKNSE
SMILES,Ki [1] [nM],EC50 [2] [nM],CAMP Efficacy (%) [2] [%]
"CNC(=O)[C@@]12C[C@@H]1[C@@H](n1cnc3c(NCc4cc(Cl)ccc4OCc4cc(C)no4)cc(Cl)nc31)[C@H](O)[C@@H]2O [Compound 62, (1S,2R,3S,4R,5S)-4-(5-chloro-7-((5-chloro-2-((3-methylisoxazol-5-yl)methoxy)benzyl)amino)-3H-imidazo[4,5-b]pyridin-3-yl)-2,3-dihydroxy-N-methylbicyclo[3.1.0]hexane-1-carboxamide]",0.33,0.31,103.26
"CCNc1cc(C#N)nc2c1ncn2[C@H]1[C@H](O)[C@H](O)[C@]2(C(=O)NC)C[C@H]12 [Compound 70, (1S,2R,3S,4R,5S)-4-(5-cyano-7-(ethylamino)-3H-imidazo[4,5-b]pyridin-3-yl)-2,3-dihydroxy-N-methylbicyclo[3.1.0]hexane-1-carboxamide]",0.133,0.1,104.76
"CNC(=O)C12C[C@@H]1[C@@H](n1cnc3c(NCC4CC4)cc(Cl)nc31)[C@H](O)[C@@H]2O (stereo in doubt) [Compound 63, (1S,2R,3S,4R,5S)-4-(5-chloro-7-((cyclopropylmethyl)amino)-3H-imidazo[4,5-b]pyridin-3-yl)-2,3-dihydroxy-N-methylbicyclo[3.1.0]hexane-1-carboxamide]",0.72,0.22,105.1
"CCNc1c(C#N)c(Cl)nc2c1ncn2[C@H]1[C@H](O)[C@H](O)[C@@H]2C[C@@H]21 [Compound 93, 5-chloro-3-((1S,2R,3S,4R,5R)-3,4-dihydroxybicyclo[3.1.0]hexan-2-yl)-7-(ethylamino)-3H-imidazo[4,5-b]pyridine-6-carbonitrile]",2.59,15.2,52
"O[C@@H]1[C@H](O)[C@@H]2C[C@@H]2[C@H]1n1cnc2c(NCc3cc(Cl)ccc3Cl)cc(Cl)nc21 [Compound 68, (1R,2R,3S,4R,5S)-4-(5-chloro-7-((2,5-dichlorobenzyl)amino)-3H-imidazo[4,5-b]pyridin-3-yl)bicyclo[3.1.0]hexane-2,3-dio]",4.75,1.33,38.22
